# Source: ChEMBL document CHEMBL6120986, “In silico inspired design of urea noscapine congeners as anticancer agents: Chemical synthesis and experimental evaluation using breast cancer cells and a xenograft mouse model” (Eur J Med Chem, 2025)
# The source made the active and inactive calls. The calls are words filed in the database; no cut-off is given here.
# Experiments:
# [1] = tested on: MCF7; assay: Antiproliferative activity against human MCF7 cells assessed as inhibition of cell proliferation incubated for 72 hrs by SRB assay; type: functional, cell-based; conditions: MCF7, 72 h
# [2] = tested on: MDA-MB-231; assay: Antiproliferative activity against human MDA-MB-231 cells assessed as inhibition of cell proliferation incubated for 72 hrs by SRB assay; type: functional, cell-based; conditions: MDA-MB-231, 72 h
# [3] = Cytotoxicty against HEK cells incubated for 72 hrs by SRB assay; type: toxicity, cell-based; conditions: human
# [4] = species on record: Capra hircus; assay: Binding affinity to goat brain tubulin assessed as tryptophan fluorescence change incubated for 45 mins by tryptophan quenching assay; conditions: dose 50-200 µM
# [5] = Binding affinity in goat brain tubulin assessed as equilibrium dissociation constant incubated for 45 mins by fluorescence titration method; set-up: species or system Capra hircus
# [6] = tested on: MDA-MB-231; assay: Inhibition of colony formation in human MDA-MB-231 cells incubated for 24 hrs by crystal violet staining based colony formation assay; type: functional, cell-based; conditions: dose 1-20 µM
# [7] = tested on: MDA-MB-231; assay: Induction of apoptosis in human MDA-MB-231 cells assessed as membrane blebbing at 6.65 uM (IC50) measured after 72 hrs by fluorescence microscopic analysis; type: functional, cell-based
# [8] = tested on: MDA-MB-231; assay: Induction of apoptosis in human MDA-MB-231 cells assessed as increase in fragmented nuclei at 6.65 uM (IC50) measured after 72 hrs by fluorescence microscopic analysis; type: functional, cell-based
# [9] = tested on: MDA-MB-231; assay: Induction of apoptosis in human MDA-MB-231 cells assessed as formation of apoptotic bodies at 6.65 uM (IC50) measured after 72 hrs by fluorescence microscopic analysis; type: functional, cell-based
# [10] = tested on: MDA-MB-231; assay: Induction of apoptosis in human MDA-MB-231 cells assessed as early apoptotic cells at 6.56 uM incubated for 72 hrs by Annexin/FITC based FACS analysis (reference value: 2%); type: functional
# [11] = tested on: MDA-MB-231; assay: Induction of apoptosis in human MDA-MB-231 cells assessed as late apoptotic cells at 6.56 uM incubated for 72 hrs by Annexin/FITC based FACS analysis (reference value: 3%); type: functional
# [12] = tested on: MDA-MB-231; assay: Induction of apoptosis in human MDA-MB-231 cells assessed as increase in TUNEL positive nuclei at 6.56 uM by TUNEL assay relative to control; type: functional, cell-based
# [13] = tested on: MDA-MB-231; assay: Induction of intracellular ROS generation in human MDA-MB-231 cells assessed as increase in fluorescence intensity at 6.56 uM incubated for 48 hrs by H2DCFDA fluorescence assay; type: functional, cell-based
# [14] = tested on: MDA-MB-231; assay: Induction of cell cycle arrest in human MDA-MB-231 cells assessed as increase in accumulation of cells at G2/M phase at 6.65 uM incubated for 72 hrs by PI staining based FACS analysis relative to control; type: functional
# [15] = tested on: MDA-MB-231; assay: Induction of cell cycle arrest in human MDA-MB-231 cells assessed as accumulation of hypodiploid cells at sub-G1 phase at 6.65 uM IC50 incubated for 72 hrs by FACS analysis; type: functional, cell-based
# [16] = tested on: Mitochondrial membrane; assay: Induction of mitochondrial membrane potential loss in human MDA-MB-231 cells assessed as decrease in red fluorescence incubated for 48 hrs by JC-1 staining based fluorescence microscopic analysis; type: cell membranes
# [17] = tested on: Mitochondrial membrane; assay: Induction of mitochondrial membrane potential loss in human MDA-MB-231 cells assessed as increase in blue fluorescence incubated for 48 hrs by […] staining based fluorescence microscopic analysis; type: cell membranes
# [18] = tested on: Mitochondrial membrane; assay: Induction of mitochondrial membrane potential loss in human MDA-MB-231 cells assessed as increase in green fluorescence incubated for 48 hrs by rhodamine-123 staining based fluorescence microscopic analysis; type: cell membranes
# [19] = tested on: MCF7; assay: Antitumor activity against human MCF7 cells xenografted in BALB/c athymic mouse assessed as reduction in tumor volume at 150 mg/kg, po administrated for 30 days (reference value: 1.63 cm^3); type: functional; conditions: time 30 day
# [20] = Toxicity in BALB/c athymic mouse xenografted with human MCF-7 cells assessed as change in body weight at 150 mg/kg, po administrated daily for 30 days; type: organism-based; conditions: in vivo, 720 h, time 30 day
# [21] = Toxicity in BALB/c athymic mouse assessed as effect on hepatic lobules morphology at 150 mg/kg, po by Hematoxylin and eosin staining based analysis; type: organism-based; conditions: in vivo
# [22] = Toxicity in BALB/c athymic mouse assessed as effect on glomeruli morphology at 150 mg/kg, po by Hematoxylin and eosin staining based analysis; type: organism-based; conditions: in vivo
# [23] = Toxicity in BALB/c athymic mouse assessed as effect on proximal tubules morphology at 150 mg/kg, po by Hematoxylin and eosin staining based analysis; type: organism-based; conditions: in vivo
# [24] = Toxicity in BALB/c athymic mouse assessed as effect on distal tubules morphology at 150 mg/kg, po by Hematoxylin and eosin staining based analysis; type: organism-based; conditions: in vivo
# [25] = Toxicity in BALB/c athymic mouse assessed as effect on interstitium morphology at 150 mg/kg, po by Hematoxylin and eosin staining based analysis; type: organism-based; conditions: in vivo
# [26] = Toxicity in BALB/c athymic mouse assessed as effect on blood arteries morphology at 150 mg/kg, po by Hematoxylin and eosin staining based analysis; type: organism-based; conditions: in vivo
# [27] = Toxicity in BALB/c athymic mouse assessed as effect on cerebral cortex morphology at 150 mg/kg mg/kg, po by Hematoxylin and eosin staining based analysis; type: organism-based; conditions: in vivo
# [28] = Toxicity in BALB/c athymic mouse assessed as effect on alveoli morphology at 150 mg/kg mg/kg, po by Hematoxylin and eosin staining based analysis; type: organism-based; conditions: in vivo
# [29] = Toxicity in female BALB/c athymic mouse assessed as effect on bronchial morphology at 150 mg/kg, po by Hematoxylin and eosin staining based analysis; type: organism-based; conditions: in vivo
# [30] = Toxicity in female BALB/c athymic mouse assessed as AST level at 150 mg/kg/day, po (reference value: 105.92 +/- 6.41 U/L); type: organism-based; conditions: in vivo
# [31] = Toxicity in female BALB/c athymic mouse assessed as creatinine level at 150 mg/kg/day, po (reference value: 0.690 +/- 0.05 mg/dl); type: organism-based; conditions: in vivo
# [32] = Toxicity in female BALB/c athymic mouse assessed as ALT level at 150 mg/kg/day, po (reference value: 29.79 +/- 3.15 U/L); type: organism-based; conditions: in vivo
# [33] = Toxicity in female BALB/c athymic mouse assessed as ALK PHOS level at 150 mg/kg/day, po (reference value: 78.59 +/- 5.85 U/L); type: organism-based; conditions: in vivo
# [34] = Toxicity in female BALB/c athymic mouse assessed as BUN level at 150 mg/kg/day, po (reference value: 10.19 +/- 2.68 mg/dl); type: organism-based; conditions: in vivo
# [35] = Toxicity in female BALB/c athymic mouse assessed as bilirubin total level at 150 mg/kg/day, po (reference value: 0.673 +/- 0.01 mg/dl); type: organism-based; conditions: in vivo
# [36] = Toxicity in female BALB/c athymic mouse assessed as bilirubin direct level at 150 mg/kg/day, po (reference value: 0.298 +/- 0.07 mg/dl); type: organism-based; conditions: in vivo
# [37] = Toxicity in female BALB/c athymic mouse assessed as bilirubin indirect level at 150 mg/kg/day, po (reference value: 3.05 +/- 0.32 mg/dl); type: organism-based; conditions: in vivo
# [38] = Toxicity in female BALB/c athymic mouse assessed as albumin level at 150 mg/kg/day, po (reference value: 6.31 +/- 0.41 g/dl); type: organism-based; conditions: in vivo
# [39] = Toxicity in female BALB/c athymic mouse assessed as total protein level at 150 mg/kg/day, po (reference value: 6.88 +/- 0.15 g/dl); type: organism-based; conditions: in vivo
# [40] = Toxicity in female BALB/c athymic mouse assessed as monocyte count at 150 mg/kg/day, po (reference value: 0.39 +/- 0.03 %); type: organism-based; conditions: in vivo
# [41] = Toxicity in female BALB/c athymic mouse assessed as eosinophil count at 150 mg/kg/day, po (reference value: 0.84 +/- 0.04 %); type: organism-based; conditions: in vivo
# [42] = Toxicity in female BALB/c athymic mouse assessed as glucose level at 150 mg/kg/day, po (reference value: 98.47 +/- 3.29 mg/dl); type: organism-based; conditions: in vivo
# [43] = Toxicity in female BALB/c athymic mouse assessed as calcium level at 150 mg/kg/day, po (reference value: 8.73 +/- 0.10 mg/dl); type: organism-based; conditions: in vivo
# [44] = Toxicity in female BALB/c athymic mouse assessed as sodium level at 150 mg/kg/day, po (reference value: 144.51 +/- 0.85 mEq/L); type: organism-based; conditions: in vivo
# [45] = Toxicity in female BALB/c athymic mouse assessed as potassium level at 150 mg/kg/day, po (reference value: 3.30 +/- 0.83 mEq/L); type: organism-based; conditions: in vivo
# [46] = Toxicity in female BALB/c athymic mouse assessed as Chlorine level at 150 mg/kg/day, po (reference value: 105.63 +/- 4.46 mEq/L); type: organism-based; conditions: in vivo
# [47] = Toxicity in female BALB/c athymic mouse assessed as WBC count at 150 mg/kg/day, po (reference value: 4.50 +/- 2.20 10^3/uL); type: organism-based; conditions: in vivo
# [48] = Toxicity in female BALB/c athymic mouse assessed as RBC count at 150 mg/kg/day, po (reference value: 5.84 +/- 0.30 10^6/uL); type: organism-based; conditions: in vivo
# [49] = Toxicity in female BALB/c athymic mouse assessed as hemoglobin concentration at 150 mg/kg/day, po (reference value: 16.59 +/- 0.60 g/dl); type: organism-based; conditions: in vivo
# [50] = Toxicity in female BALB/c athymic mouse assessed as hematocrit at 150 mg/kg/day, po (reference value: 41.34 +/- 0.30 %); type: organism-based; conditions: in vivo
# [51] = Toxicity in female BALB/c athymic mouse assessed as mean corpuscular volume at 150 mg/kg/day, po (reference value: 53.06 +/- 0.06 fL); type: organism-based; conditions: in vivo
# [52] = Toxicity in female BALB/c athymic mouse assessed as mean corpuscular hemoglobin measured per cell at 150 mg/kg/day, po (reference value: 28.62 +/- 0.08 pg/cell); type: organism-based; conditions: in vivo
# [53] = Toxicity in female BALB/c athymic mouse assessed as mean corpuscular hemoglobin concentration at 150 mg/kg/day, po (reference value: 35.86 +/- 0.24 g/dl); type: organism-based; conditions: in vivo
# [54] = Toxicity in female BALB/c athymic mouse assessed as platelet at 150 mg/kg/day, po (reference value: 95.11 +/- 7.23 10^3/uL); type: organism-based; conditions: in vivo
smiles,measurement,setting,value
COc1cc(NC(=O)Nc2c3c(c(OC)c4c2OCO4)[C@H]([C@H]2OC(=O)c4c2ccc(OC)c4OC)N(C)CC3)cc(OC)c1OC,IC50,[1],36.1 µM
same,IC50,[2],48.1 µM
same,IC50 at 72 h,[3],294 µM
COc1ccc2c(c1OC)C(=O)O[C@@H]2[C@H]1c2c(c(NC(=O)Nc3ccc(Cl)cc3Cl)c3c(c2OC)OCO3)CCN1C,Activity,[4],Dose-dependent-effect
same,Kd,[5],42 µM
same,IC50,[1],4.77 µM
same,IC50,[2],6.56 µM
same,IC50 at 72 h,[3],338 µM
same,inhibition,[6],Dose-dependent-effect
same,Activity,[7],Active
same,Activity,[8],Active
same,Activity,[9],Active
same,Activity,[10],22%
same,Activity,[11],68%
same,Activity,[12],Active
same,Activity,[13],Active
same,Activity,[14],Active
same,Activity,[15],Active
same,Activity,[16],Active
same,Activity,[17],Active
same,Activity,[18],Active
same,Activity,[19],0.34 cm3
same,Activity,[20],Non-toxic
same,Activity,[21],Non-toxic
same,Activity,[22],Non-toxic
same,Activity,[23],Non-toxic
same,Activity,[24],Non-toxic
same,Activity,[25],Non-toxic
same,Activity,[26],Non-toxic
same,Activity,[27],Non-toxic
same,Activity,[28],Non-toxic
same,Activity,[29],Non-toxic
same,Activity,[30],106.86 U/L
same,Activity,[31],0.702 mg/dL
same,Activity,[32],28.62 U/L
same,Activity,[33],78.45 U/L
same,Activity,[34],12.11 mg/dL
same,Activity,[35],0.56 mg/dL
same,Activity,[36],0.32 mg/dL
same,Activity,[37],3.08 mg/dL
same,Activity,[38],6.19 g/dL
same,Activity,[39],6.56 g/dL
same,Activity,[40],0.48%
same,Activity,[41],0.9%
same,Activity,[42],98.37 mg/dL
same,Activity,[43],7.9 mg/dL
same,Activity,[44],144.4 mEq/L
same,Activity,[45],3.3 mEq/L
same,Activity,[46],106.71 mEq/L
same,Activity,[47],4.59 10^3 /uL
same,Activity,[48],6.29 10^6 /uL
same,Activity,[49],14.6 g/dL
same,Activity,[50],39.29%
same,Activity,[51],58.1 fL
same,Activity,[52],29.7 pg
same,Activity,[53],34.74 g/dL
same,Activity,[54],89.07 10^3 /uL
COc1ccc2c(c1OC)C(=O)O[C@@H]2[C@H]1c2c(cc3c(c2OC)OCO3)CCN1C [NOSCAPINE],IC50,[1],39.7 µM
same,IC50,[2],54 µM
same,IC50 at 72 h,[3],229 µM
CCc1ccc(NC(=O)Nc2c3c(c(OC)c4c2OCO4)[C@H]([C@H]2OC(=O)c4c2ccc(OC)c4OC)N(C)CC3)cc1,IC50,[1],38.2 µM
same,IC50,[2],45.7 µM
same,IC50 at 72 h,[3],290 µM
